Experimental data as given in paper PMC11277004, “Di- and Triselenoesters—Promising Drug Candidates for the Future Therapy of Triple-Negative Breast Cancer” (International Journal of Molecular Sciences, 2024).
Where two headings read alike, the source gives them in different places.

What was measured:
Bcl-2 = Bcl-2 protein level by flow cytometry, MDA-MB-231; type: cell-based, human; conditions: 24 h
Description: (§1) For this purpose, Akt (PE), Bax (FITC), Bcl-2 (Alexa Fluor® 647), LC3A/B (Alexa Fluor® 488), and p53 (Alexa Fluor® 488) antibodies conjugated to different fluorochromes (all from Cell Signaling Technology, Beverly, MA, USA) were utilized. Each assay was performed according to the manufacturer's protocol available on their website. After incubation with the tested compounds, the cells were centrifuged, resuspended in 4% formaldehyde (100 μL/1 × 10^6 cells), and fixed for 15 min at room temperature. Afterward, to remove the formaldehyde, the cells were washed by centrifugation with excess PBS and the permeabilization step was triggered. For this purpose, ice-cold 90% methanol was added to the pre-chilled cell pellet, gently vortexed, and incubated for 1 h on ice. Later, the cells were washed by centrifugation with excess PBS again, resuspended in 100 μL of 1:100 diluted primary antibody (stain buffer was used for dilution), and incubated for 1 h at room temperature in the dark. After incubation, the cells were washed, resuspended in 300 μL PBS, and immediately tested with a flow cytometer (BD FACSCanto II, BD Biosciences Systems, San Jose, CA, USA; 10,000 events measured). The obtained results were analyzed using the FACSDiva 6.0 software (BD Biosciences Systems, San Jose, CA, USA). In the case of the p53 protein, the MRF values were obtained first during the flow cytometer readout utilizing FACSDiva software and later analyzed using FCS Express 7 (De Novo Software, Pasadena, CA, USA). The equipment calibration was performed using the BD Cytometer Setup and Tracking Beads (BD Biosciences, San Diego, CA, USA).

Bax = Bax protein level by flow cytometry, MDA-MB-231; type: cell-based, human; conditions: 24 h
Description: as §1

LC3A/B = LC3A/B protein level by flow cytometry, MCF-7; type: cell-based, human; conditions: 24 h
Description: as §1

caspase 7 = test: Caspase 3/7 activity (FAM-FLICA, flow cytometry), MCF-7; type: cell-based, human; conditions: MCF-7 (lack caspase 3), 24 h
Description: (§2) The FAM-FLICA® Caspase Assay kits (all from ImmunoChemistry Technologies, Bloomington, MN, USA) and flow cytometer (BD FACSCanto II, BD Biosciences Systems, San Jose, CA, USA) were used to evaluate the activity of caspase 3/7, 8, and 9. MCF-7 and MDA-MB-231 cells were treated with selenoesters under the study (EDAG-1 and EDAG-8) and a reference agent (cisplatin) at two different concentrations (0.5 and 1 µM; treatment duration: 24 h). Following this, cells were collected, washed twice with cold PBS, and resuspended in an Apoptosis Wash Buffer to a final concentration of 5 × 10^5 cells/mL. In the next step, 290 µL each of cell suspension was taken and transferred into tubes. Then 10 µL of FLICA solution diluted immediately before use (1:5 v/v, using PBS) was added to the cells, mixed by pipetting, and incubated in the dark for 1 h at 37 °C. After this time, the cells were washed twice with 2 mL Apoptosis Wash Buffer, centrifuged, and resuspended in 300 µL of the buffer. Thus, prepared samples were immediately analyzed using a BD FACSCanto II flow cytometer (10,000 events) with the FACSDiva 6.0 software (both from BD Biosciences Systems, San Jose, CA, USA). The equipment calibration was carried out using the BD Cytometer Setup and Tracking Beads (BD Biosciences, San Diego, CA, USA).

caspase 9 = test: Caspase 9 activity (FAM-FLICA, flow cytometry), MCF-7; type: cell-based, human; conditions: 24 h
Description: as §2

[1] = tested on: MDA-MB-231 triple-negative breast cancer cells; test: MTT cytotoxicity test, MDA-MB-231; type: cell-based, human; conditions: MDA-MB-231, 24 h incubation, read-out: IC50, cell viability (MTT)
Description: (§3) MCF-7 and MDA-MB-231 human breast cancer cell lines, as well as MCF-10A normal human breast epithelial cells, were acquired from the American Type Culture Collection (ATCC, Manassas, VA, USA). The characteristics of the breast cancer cell lines used in this study are compared in Table 1. MCF-7 and MDA-MB-231 cells were cultured in Dulbecco’s modified Eagle’s medium (Gibco, San Diego, CA, USA), while MCF-10A cells were cultured in the mammary epithelial cell growth medium with the following supplements: BPE, hEGF, insulin, hydrocortisone, GA-1000 (Lonza, Basel, Switzerland). All media were complemented by 10% of fetal bovine serum (FBS) and 1% of the following antibiotics: penicillin and streptomycin (both Gibco, San Diego, CA, USA). The cells were maintained in an incubator that provides the optimal growth conditions for the cell culture: 5% CO2, 37 °C, and humidity in a range of 90–95%. The cells were cultured in 100 mm plates (Sarstedt, Newton, NC, USA). Subsequently, after obtaining a subconfluent cell culture, the cells were detached with 0.05% trypsin with 0.02% EDTA (Gibco, San Diego, CA, USA). […] In this study, cells that obtained 80% confluence were used. The MTT assay was used to determine the cytotoxic effects of the compounds in the study on MCF-7 and MDA-MB-231 breast cancer cells as well as MCF-10A normal human breast epithelial cells based on Carmichael’s method. […] After this time, the medium was removed, and the cell monolayer was washed with warm phosphate-buffered saline (PBS) without calcium and magnesium. In the next step, PBS and MTT solution in PBS (5 mg/mL) were added to each well to obtain a final MTT concentration of 0.5 mg/mL, and then the cells were incubated for 4 h (37 °C temperature, 5% CO2, 90–95% humidity). After the incubation period, the contents of each well were removed, 1 mL of DMSO was added to dissolve the formazan, and then the plate with the added DMSO was mixed for 5–10 min on a microplate shaker (Boeco, Hamburg, Germany). Then, 10 µL of Sorensen’s glycine buffer (a solution of 0.1 M glycine and 0.1 M sodium chloride adjusted to pH 10.5 with 0.1 M sodium hydroxide) was added. The absorbance of the obtained solution was immediately measured at a wavelength of λ = 570 nm using a Thermo Scientific Evolution 201 UV–VIS spectrophotometer (Thermo Fisher Scientific, Waltham, MA, USA). The absorbance result obtained in the control cells (without the addition of the tested compounds) was taken as 100%, while the viability of cells incubated with the tested compounds was presented as a percentage of the control value.

caspase 3/7 = test: Caspase 3/7 activity (FAM-FLICA, flow cytometry), MDA-MB-231; type: cell-based, human; conditions: 24 h
Description: as §2

[2] = tested on: MCF-10A normal human breast epithelial cells; test: MTT cytotoxicity test, MCF-10A; type: cell-based; conditions: 24 h incubation, read-out: IC50, cell viability (MTT)
Description: as §3

[3] = tested on: MCF-7 breast cancer cells; test: MTT cytotoxicity test, MCF-7; type: cell-based, human; conditions: MCF-7, 24 h incubation, read-out: IC50, cell viability (MTT)
Description: as §3

Compound | Bcl-2 negative cells ± SD (Bcl-2; MDA-MB-231, 0.5 μM) [%] | Bcl-2 negative cells ± SD (Bcl-2; MDA-MB-231, 1 μM) [%] | Bax positive cells ± SD (Bax; MDA-MB-231, 0.5 μM) [%] | Bax positive cells ± SD (Bax; MDA-MB-231, 1 μM) [%] | LC3A/B positive cells ± SD (LC3A/B; MCF-7, 0.5 μM) [%] | LC3A/B positive cells ± SD (LC3A/B; MCF-7, 1 μM) [%] | Active caspase 7 ± SD (cells) (caspase 7; 0.5 μM) [%] | Active caspase 7 ± SD (cells) (caspase 7; 1 μM) [%] | Active caspase 9 ± SD (cells) (caspase 9; MCF-7, 0.5 μM) [%] | Active caspase 9 ± SD (cells) (caspase 9; MCF-7, 1 μM) [%] | IC50 [1] [nM] | Active caspase 3/7 ± SD (cells) (caspase 3/7; MDA-MB-231, 0.5 μM) [%] | Active caspase 3/7 ± SD (cells) (caspase 3/7; MDA-MB-231, 1 μM) [%] | IC50 [2] [nM] | IC50 [3] [nM] | IC50 ([1]; Homo sapiens) [nM] | IC50 ([2]; Homo sapiens) [nM] | IC50 ([3]; Homo sapiens, MCF7) [nM]
N.N.[Cl][Pt][Cl] [Cisplatin, reference compound] | 4.3 ± 0.3 | 4.5 ± 0.6 | 1.3 ± 0.3 | 1.4 ± 0.1 | 3.3 ± 0.5 | 3.5 ± 0.4 | 4.3 ± 0.3 | 4.6 ± 0.3 | 5.9 ± 0.1 | 6.1 ± 0.6 | > 5000 | 5.2 ± 0.5 | 5.2 ± 0.6 | > 5000 | > 5000 | – | – | –
CC(=O)C[Se]C(=O)c1ccc(C(=O)[Se]CC(C)=O)cc1 [EDAG-1, Se,Se-bis(2-oxopropyl) benzene-1,4-bis(carboselenoate)] | 36.1 ± 1.6 | 68.9 ± 5.7 | 12.5 ± 2.3 | 37.8 ± 5.1 | 9.9 ± 0.9 | 12.0 ± 1.4 | 5.7 ± 0.5 | 6.9 ± 0.5 | 7.1 ± 0.7 | 12.8 ± 1.4 | – | 9.2 ± 0.5 | 12.5 ± 0.4 | – | – | 710 ± 60 | 410 ± 30 | 470 ± 60
CC(=O)C[Se]C(=O)c1cc(C(=O)[Se]CC(C)=O)cc(C(=O)[Se]CC(C)=O)c1 [EDAG-8, Se,Se,Se-tris-(2-oxopropyl) benzene-1,3,5-tris-(carboxyselenoate)] | 51.7 ± 3.5 | 74.9 ± 2.7 | 34.5 ± 3.4 | 60.3 ± 8.8 | 11.9 ± 1.1 | 17.4 ± 1.3 | 7.4 ± 0.8 | 16.3 ± 2.6 | 15.5 ± 0.5 | 22.8 ± 2.4 | – | 19.7 ± 0.6 | 32.2 ± 2.9 | – | – | 530 ± 30 | 510 ± 20 | 610 ± 50
